# Laboratory results: US7888385B2, “Airway alkalinization as therapy for airway diseases” (priority 2002, dated 2011)
# Structures can show the parent of a compound that is named as a salt.
# How the values were obtained:
# [1] = system: airway epithelial glutaminase; experiment: Ammonium accumulation by small airway epithelial cells (SAEC) in 3 mM glutamine; format: cell-based, human
# Description: (SAEC: Clonetics) grown to confluence in six well plates with 3 mM glutamine were incubated with S-Nitrosoglutathione (GSNO; 200 μm) in the presence or absence of cysteinyl glycine (CG; 100 μM). Ammonium accumulation over time was compared with control cells. S-Nitrosoglutathione require conversion to S-Nitrosocysteinyl glycine (CGSNO) (whether through simple transnitrosation reactions in the presence of CG or through cleavage by γ glutamyl transpeptidase) to be fully active at intracellular sites, such as mitochondrial glutaminase, in some system. However, conversion of GSNO to CGSNO dramatically shortens the chemical and biological half-life of the SNO moiety. […] Accumulation of NH4^+ in medium alone was at the threshold of detection.
# [2] = Practical applications: asthma patient cases; format: in vivo, human
# Text: (§1) Practical Applications of the Present Invention
# glutaminase = experiment: Glutaminase activity in cultured lung epithelial cells; format: cell-based; conditions: 100 u/ml, at 24 and 48 hours, p<0.01, n=3 each
# Text: An indirect effect of HRV infection involving inflammatory and/or neuronal mediators is also possible. In particular, IFN γ is a likely candidate to mediate glutaminase inhibition because 1) Th1 cytokines inhibit glutaminase activity in lower airway epithelial cells 2) IFN γ inhibits glutaminase in other cell systems; and 3) IFN γ production following HRV infection in the setting of Th2-lymphocyte associated chronic inflammation may contribute to asthmatic airway narrowing. Applicants have shown that 100 u/ml interferon gamma inhibits glutaminase activity in cultured lung epithelial cells in excess of 65% at 24 and 48 hours (p<0.01, n=3 each). Though circulating T cells could produce IFN γ during rhinovirus infections, it seems more likely that it would be secreted in the airway itself as a result of local recruitment and activation of Th1 and/or CD8 cells.
# In accordance with one embodiment, a method of treating asthma comprises nebulizing or treating systemically with a compound that facilitates breakdown of S-Nitrosothiols, such as CuCl, Cu/Zn SOD, glutathione peroxidase, glutathione-dependent formaldehyde dehydrogenase or gamma glutamyl transpeptidase. […]
# [3] = existing formulations; cited from earlier work
# [4] = cited from earlier work
# mycobacteria = conditions: human, in vivo, pH 3
# Text: as §1
compound,measurement,setting,value
"N[C@@H](CS)C(=O)NCC(=O)O [CG, cysteinyl glycine]",effect on GSNO inhibition of NH4+ accumulation after 48 hours,"[1]; cysteinyl glycine 100 μM added to GSNO 200 μm, after 48 hours",eliminated the GSNO effect
[Cl][Cu] [CuCl],asthma symptoms,"[2]; 10 μM in 10 mM phosphate buffered saline, pH 8, three times/day",asthma symptoms resolve
interferon gamma: Th1-derived cytokine that inhibits glutaminase,inhibition of glutaminase activity,glutaminase,> 65%
CC(C)(C)NC[C@H](O)c1ccc(O)c(CO)c1 [Levalbuterol HCl],asthma symptoms,"[2]; levalbuterol and budesonide together, 0.5 mg by nebulizer four times/day",without relief of their symptoms
same,pH of existing formulation,[3],3.3-4.5
"O=C(O)CN(CCO)CCO [bicine, N,N-Bis(2-hydroxyethyl)glycine]",pKa,[4],8.46
"NCC(=O)O [glycine, aminoacetic acid]",asthma symptoms,[2]; 1 mM glycine in 10 mM CAPS (pH 7.6) by nebulizer immediately before levalbuterol and budesonide,becomes asymptomatic
CC(C)(C)NCC(O)c1ccc(O)c(CO)c1 (centres unmarked) [Albuterol],asthma symptoms,"[2]; 0.083 mg diluted in normal saline (pH 3.5), child",symptoms do not improve
same,asthma symptoms,"[2]; same dose diluted in 10 mM phosphate buffered saline, pH 8",symptoms resolve
same,pH of existing formulation,[3],3 to 5
NC(=O)CC[C@H](N)C(=O)O [glutamine],asthma symptoms,[2]; 1 gm by mouth three times a day,does not develop any asthma symptoms
same,asthma exacerbation,[2]; 1 gm by nebulizer (pH 8) twice a day at onset of upper respiratory symptoms,does not develop an asthma exacerbation
OC(Cn1cncn1)(Cn1cncn1)c1ccc(F)cc1F [fluconazole],asthma symptoms,"[2]; 7 day course, 200 mg/day, chronic yeast infection in mouth",asthma symptoms improve
CC(=O)O [acetic acid],tuberculosis symptoms,mycobacteria,symptoms resolve
"N[C@@H](CCC(=O)N[C@@H](CSN=O)C(=O)NCC(=O)O)C(=O)O [GSNO, S-Nitrosoglutathione]",NH4+ accumulation at 24 hours,"[1]; GSNO 200 μm in the presence of cysteinyl glycine 100 μM, 24 hours",no NH4^+ at all accumulated
same,NH4+ accumulation over time vs control cells,"[1]; GSNO 200 μm, SAEC, p<0.01 by ANOVA",inhibited NH4^+ accumulation at each time point
"O=C(O)CNC(CO)(CO)CO [tricene, N-[tris(hydroxymethyl)methyl] glycine]",pKa,[4],8.26
